“Also recorded” adds a separate entry of the source. Read-outs that look alike come from different tables or passages of the source.
Key:
human TRPA1 = target: T1, human TRPA1 (Homo sapiens, UniProt O75762); experiment: In vitro Ca2+ flux counter-screen in human TRPA1 overexpressing cells; type: cell-based; conditions: counter-screen; read-out: TRPA1 EC50
T1 construct: expressed in transfected cells; host or cells: overexpressing cells

human TRPV1 = target: T2, human TRPV1 (Homo sapiens, UniProt Q8NER1); experiment: In vitro Ca2+ flux assay in human TRPV1 transfected HEK 293 cells; type: cell-based; conditions: read-out: TRPV1 EC50
T2 construct: DYK (FLAG) tag from vector pcDNA3.1+/C-(K)DYK (C); host or cells: FreeStyle 293-F cells (HEK 293), transient transfection

[1] = design: decrease in the second phase of the formalin test: dose or concentration left out as unconfirmed; conditions: intraplantar
In vivo mouse PK = conditions: IV 0.4 mg/kg, C57BL6 mouse
[2] = Mouse liver microsome stability; type: in vitro ADME; conditions: liver microsomes, C57BL6 mouse liver microsome
[3] = both, mouse, in vivo, 1 min
MDA-MB-231 cell invasion = experiment: Cancer cell invasion assay, MDA-MB-231; type: cell-based, human; conditions: 24 h
Protocol: A cancer cell invasion assay was developed based on literature protocols (Methods 2005, 37, 208; EMBO J 2002, 21, 6289; Cellular Signalling 2012, 24, 1276.). Membrane matrix gel (Cat #A1413201, ThermoFisher) was diluted in ice-cold, serum-free RPMI 1640 Medium (Cat #31800022, ThermoFisher) at a concentration of 0.5-0.6 mg/mL. Then it was added to the upper compartment (100 μL per cup) of millicell inserts (Cat #PI8P01250, ThermoFisher) placed in a 24-well plate (Part no. 229123, Celltreat). The plate was incubated at 37° C. for 2 h to allow the liquid gel to solidify. RPMI 1640 Medium supplemented with 10% FBS (300 μL) was added to the well of the plate (lower compartment) as attractant, then DMSO or compounds were added. Human cancer cells (1×10^5 cells in 200 μL of RPMI 1640 Medium) were added to the upper compartment of the insert, then DMSO or compounds were added. After the plate was incubated at 37° C. for 24 h, the cells were fixed on the lower side of the insert membrane with 4% formaldehyde and stained with 1% crystal violet (Part no. IS12146, Innovating Science). The invaded cells on the lower side of the filter were counted under an inverted microscope equipped with either a 4× or a 10× objective (FIG. 11). The cell numbers from 5 random views were averaged and plotted as percentage against the DMSO control (FIG. 12A).

MDA-MB-231 = experiment: Human cancer cell growth inhibition assay (ATP assay), MDA-MB-231; type: cell-based; conditions: Homo sapiens, MDA-MB-231, 96 h; 4 days; Means±SEM from three independent experiments; read-out: MDA-MB-231, IC50
OVCAR-8 = experiment: Human cancer cell growth inhibition assay (ATP assay), OVCAR-8; type: cell-based; conditions: Homo sapiens, OVCAR-8, 96 h; 4 days; Means±SEM from three independent experiments; read-out: OVCAR-8, IC50
human TRPV3 = target: T3, human TRPV3 (Homo sapiens, UniProt Q8NET8); experiment: In vitro Ca2+ flux counter-screen in human TRPV3 overexpressing cells; type: cell-based; conditions: counter-screen; read-out: TRPV3 EC50
T3 construct: expressed in transfected cells; host or cells: overexpressing cells
T3 sequence (Q8NET8 1-790): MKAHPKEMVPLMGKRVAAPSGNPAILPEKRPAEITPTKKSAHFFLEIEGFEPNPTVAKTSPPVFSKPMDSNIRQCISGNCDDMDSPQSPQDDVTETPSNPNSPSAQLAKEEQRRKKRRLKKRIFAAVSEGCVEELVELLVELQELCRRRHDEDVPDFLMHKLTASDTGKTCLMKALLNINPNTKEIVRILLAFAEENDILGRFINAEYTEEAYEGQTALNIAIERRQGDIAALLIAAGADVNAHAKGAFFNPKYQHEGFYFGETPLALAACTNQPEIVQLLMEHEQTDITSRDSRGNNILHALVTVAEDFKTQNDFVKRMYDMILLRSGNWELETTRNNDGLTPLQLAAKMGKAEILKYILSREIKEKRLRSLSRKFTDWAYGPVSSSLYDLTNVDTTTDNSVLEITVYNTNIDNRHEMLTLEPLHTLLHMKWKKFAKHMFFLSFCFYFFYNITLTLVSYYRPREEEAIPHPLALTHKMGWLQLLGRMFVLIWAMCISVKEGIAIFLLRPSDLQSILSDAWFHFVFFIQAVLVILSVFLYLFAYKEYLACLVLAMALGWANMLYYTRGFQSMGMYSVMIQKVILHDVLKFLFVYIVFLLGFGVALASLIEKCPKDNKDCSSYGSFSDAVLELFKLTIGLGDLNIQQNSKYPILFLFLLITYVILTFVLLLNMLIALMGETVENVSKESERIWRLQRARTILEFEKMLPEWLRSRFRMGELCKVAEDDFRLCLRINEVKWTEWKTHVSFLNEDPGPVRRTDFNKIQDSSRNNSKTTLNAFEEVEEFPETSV

NCI-H460 = experiment: Human cancer cell growth inhibition assay (ATP assay), NCI-H460; type: cell-based; conditions: Homo sapiens, NCI-H460, 96 h; 4 days; Means±SEM from three independent experiments; read-out: NCl-H460, IC50
TRPV1 = target: T4, TRPV1 (Mus musculus, UniProt Q704Y3); experiment: Ca2+ imaging of primary mouse dorsal root ganglion (DRG) neurons, TRPV1 desensitization; type: cell-based; conditions: then capsaicin 0.5 μM
T4 construct: DRG was isolated from male and female mice expressing GCaMP6f in neurons; endogenous in cells; host or cells: dissociated primary DRG neurons from GCaMP6f-expressing mice

[4] = SubQ 6 mg/kg
[5] = Operant Pain Tolerance Assay; type: in vivo; conditions: intraplantar
Protocol: Model 3—The ability of YB-16 to increase pain tolerance was tested using a newly published Operant Pain Tolerance Assay (eNeuro 2020, 7, ENEURO.0210-19.2020). In the assay, mice were trained to seek a sucrose reward that was on a hot 42° C. plate (versus no reward on a neutral 30° C. plate). It was noticed that intraplantar YB-16 treated mice with paw inflammatory injury [induced by Complete Freund's adjuvant (CFA) 24 hrs prior to treatment] trended to spend 145% more time on the hot side of the assay but not necessarily additional time near the sucrose bottle compared to vehicle treated mice (FIG. 10B).

[6] = Means±SEM from three independent experiments
[7] = first treatment capsaicin 0.5 μM, YB-11 0.5 μM or YB-16 1.0 μM, paired t-test

T2 sequence (Q8NER1 whole entry): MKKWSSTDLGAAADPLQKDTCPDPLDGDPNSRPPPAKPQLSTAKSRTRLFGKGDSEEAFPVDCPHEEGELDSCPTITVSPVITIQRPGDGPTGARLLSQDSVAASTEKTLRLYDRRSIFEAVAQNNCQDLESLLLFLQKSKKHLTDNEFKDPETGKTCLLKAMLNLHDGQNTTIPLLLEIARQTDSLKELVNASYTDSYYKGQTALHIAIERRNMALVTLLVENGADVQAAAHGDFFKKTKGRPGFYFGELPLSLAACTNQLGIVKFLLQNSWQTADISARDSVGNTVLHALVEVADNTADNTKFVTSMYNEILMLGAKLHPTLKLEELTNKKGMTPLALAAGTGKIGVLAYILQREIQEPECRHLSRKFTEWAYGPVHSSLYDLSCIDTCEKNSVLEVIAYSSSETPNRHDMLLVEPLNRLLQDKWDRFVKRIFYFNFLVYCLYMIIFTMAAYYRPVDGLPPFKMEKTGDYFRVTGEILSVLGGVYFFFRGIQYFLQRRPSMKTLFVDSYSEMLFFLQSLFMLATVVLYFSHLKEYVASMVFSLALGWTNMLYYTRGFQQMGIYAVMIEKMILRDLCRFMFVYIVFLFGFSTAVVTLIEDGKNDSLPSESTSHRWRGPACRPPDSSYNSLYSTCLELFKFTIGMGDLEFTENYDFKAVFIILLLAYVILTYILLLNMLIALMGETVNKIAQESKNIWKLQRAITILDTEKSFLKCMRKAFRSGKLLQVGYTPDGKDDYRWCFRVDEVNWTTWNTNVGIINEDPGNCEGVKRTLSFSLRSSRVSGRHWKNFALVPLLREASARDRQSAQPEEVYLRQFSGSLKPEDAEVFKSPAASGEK
T4 sequence (Q704Y3 whole entry): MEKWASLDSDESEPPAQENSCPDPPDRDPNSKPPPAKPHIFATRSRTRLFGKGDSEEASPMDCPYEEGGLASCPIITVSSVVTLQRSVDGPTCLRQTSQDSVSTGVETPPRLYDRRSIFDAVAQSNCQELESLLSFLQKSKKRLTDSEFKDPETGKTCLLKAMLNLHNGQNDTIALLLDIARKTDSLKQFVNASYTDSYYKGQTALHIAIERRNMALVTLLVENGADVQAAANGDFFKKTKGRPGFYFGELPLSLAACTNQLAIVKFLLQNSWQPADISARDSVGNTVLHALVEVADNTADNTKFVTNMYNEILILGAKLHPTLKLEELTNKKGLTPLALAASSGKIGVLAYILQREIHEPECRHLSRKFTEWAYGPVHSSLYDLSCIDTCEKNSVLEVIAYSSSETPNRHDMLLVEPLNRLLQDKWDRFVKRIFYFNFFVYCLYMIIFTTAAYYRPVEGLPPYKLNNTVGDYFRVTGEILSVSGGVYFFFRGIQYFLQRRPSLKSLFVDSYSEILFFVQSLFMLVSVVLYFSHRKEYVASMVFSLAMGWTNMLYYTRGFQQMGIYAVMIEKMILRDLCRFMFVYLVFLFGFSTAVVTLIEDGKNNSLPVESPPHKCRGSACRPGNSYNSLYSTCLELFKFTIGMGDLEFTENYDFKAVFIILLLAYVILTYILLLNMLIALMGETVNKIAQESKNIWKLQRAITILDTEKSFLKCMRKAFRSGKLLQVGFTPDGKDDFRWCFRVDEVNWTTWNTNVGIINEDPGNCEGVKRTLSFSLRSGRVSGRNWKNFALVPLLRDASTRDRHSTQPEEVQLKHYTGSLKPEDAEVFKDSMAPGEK
T1 sequence (O75762 whole entry): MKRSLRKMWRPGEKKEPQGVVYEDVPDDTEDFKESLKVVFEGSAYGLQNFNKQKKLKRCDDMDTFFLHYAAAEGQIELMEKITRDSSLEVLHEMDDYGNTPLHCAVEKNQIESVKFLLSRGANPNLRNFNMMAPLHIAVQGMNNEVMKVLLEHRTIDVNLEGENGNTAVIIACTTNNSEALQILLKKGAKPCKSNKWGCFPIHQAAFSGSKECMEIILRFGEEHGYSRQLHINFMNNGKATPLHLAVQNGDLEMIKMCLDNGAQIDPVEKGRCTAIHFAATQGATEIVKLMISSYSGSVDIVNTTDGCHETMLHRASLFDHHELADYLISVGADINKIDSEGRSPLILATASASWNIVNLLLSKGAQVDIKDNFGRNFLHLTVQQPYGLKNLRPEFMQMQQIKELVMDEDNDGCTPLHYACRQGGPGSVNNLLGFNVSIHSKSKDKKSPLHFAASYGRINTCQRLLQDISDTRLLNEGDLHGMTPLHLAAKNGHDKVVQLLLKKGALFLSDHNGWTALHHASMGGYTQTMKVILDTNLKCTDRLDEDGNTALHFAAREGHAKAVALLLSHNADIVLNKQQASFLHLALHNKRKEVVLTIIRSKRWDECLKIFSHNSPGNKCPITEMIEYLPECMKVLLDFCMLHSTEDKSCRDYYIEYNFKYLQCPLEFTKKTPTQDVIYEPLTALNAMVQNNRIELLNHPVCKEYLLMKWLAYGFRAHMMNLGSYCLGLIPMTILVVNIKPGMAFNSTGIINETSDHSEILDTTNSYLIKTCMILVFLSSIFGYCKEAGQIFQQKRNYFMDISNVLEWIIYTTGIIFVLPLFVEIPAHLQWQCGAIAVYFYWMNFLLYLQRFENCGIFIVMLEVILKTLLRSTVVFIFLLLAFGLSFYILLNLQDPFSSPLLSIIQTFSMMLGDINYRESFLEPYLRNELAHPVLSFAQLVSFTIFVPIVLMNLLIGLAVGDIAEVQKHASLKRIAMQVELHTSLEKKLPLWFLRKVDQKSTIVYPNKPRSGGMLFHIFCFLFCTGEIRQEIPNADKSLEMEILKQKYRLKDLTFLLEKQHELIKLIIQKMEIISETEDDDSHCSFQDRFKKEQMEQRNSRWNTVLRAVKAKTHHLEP

| Compound | EC50 (human TRPA1) | EC50 (human TRPV1; [6]) | animal death and sedation in formalin test [1] | MPP [3] | IC50 (MDA-MB-231) | IC50 (OVCAR-8) | EC50 (human TRPV3) | IC50 (NCI-H460) | other results |
| --- | --- | --- | --- | --- | --- | --- | --- | --- | --- |
| COc1cc(CNC(=O)CCCC/C=C/C(C)C)ccc1N [YB-2] | > 10 µM | < 0.1 µM | No mice treated with YB-16, YB-11 or YB-2 died or experienced sedative reaction | 0.233 mg/mL | 342 ± 30 µM | 200 ± 22 µM | > 10 µM | 350 ± 25 µM | EC50 (human TRPV1; Table 3 comparison, YB-2 tested as a HCl salt): 0.082 µM; effect in the second phase of the formalin test ([1]; 2 hr prior to formalin): significant analgesic effect in the second phase for male mice only; effect on formalin spontaneous pain-like behavior ([1]; 2 hr prior to formalin): did not reduce formalin behavior at any dose tested; λz (In vivo mouse PK): 4.1 h⁻¹; CLint scaled at 2 μM [2]: 1780 mL/min/kg; inhibition of MDA-MB-231 cell invasion (MDA-MB-231 cell invasion): dose-dependently inhibited |
| COCCOCCOCCC(=O)Oc1ccc(CC(=O)N/C=C/c2ccc(C(F)(F)F)cc2)cc1OC [YB-16] | > 10 µM | 0.93 µM | No mice treated with YB-16, YB-11 or YB-2 died or experienced sedative reaction | 0.302 mg/mL | > 100 µM | 16 µM | > 10 µM | > 100 µM | TRPV1-sensitive neurons showing desensitization (TRPV1; first treatment 1.0 μM): 79%; area under the curve of the Ca2+ signal of the second (capsaicin) application (TRPV1; [7]): statistically significant reduction; also recorded: significantly reduced; max Ca2+ signal of the second (capsaicin) application (TRPV1; [7]): statistically significant reduction; also recorded: significantly reduced; decrease in the second phase of the formalin test ([1]; 2 hr prior to formalin): 54%; reduction of formalin first phase behavior ([1]; 2 hr prior to formalin): 60%; MPE (maximum possible effect) increase compared to vehicle [4]: 270%; sedation in operant pain tolerance assay [5]: inflammatory injury with no sedation; sensitivity to hot plate after inflammatory injury ([5]; paw inflammatory injury (CFA)): trended to reduce sensitivity to hot plate after inflammatory injury compared to vehicle; also recorded: trended to increase time in a 42 °C chamber; also recorded: Trend for reduced sensitivity to hot |

From US20240116856A1 (Young BioPharma, LLC, priority 2020, published 2024)
